Data from ChEMBL document CHEMBL1136937, “Discovery of a potent class I selective ketone histone deacetylase inhibitor with antitumor activity in vivo and optimized pharmacokinetic properties” (J Med Chem, 2009).
Converted amounts (≈) assume the structure as drawn. The source made the active and inactive calls. The rule behind the calls is not given here.

Tests used:
[1] = Volume of distribution at steady state in Sprague-Dawley rat at 3 mg/kg, iv and 3 mg/kg, po; format: ADME, organism-based; details: in vivo, read-out: Vdss
[2] = Terminal half life in Sprague-Dawley rat at 3 mg/kg, iv and 3 mg/kg, po; format: ADME, organism-based; details: in vivo, read-out: beta t1/2 (converted)
Cytochrome P450 3A4 [3] = molecular target: T1, Cytochrome P450 3A4 (Homo sapiens, UniProt P08684); assay: Inhibition of CYP3A4; format: ADME
T1 sequence (P08684 whole entry): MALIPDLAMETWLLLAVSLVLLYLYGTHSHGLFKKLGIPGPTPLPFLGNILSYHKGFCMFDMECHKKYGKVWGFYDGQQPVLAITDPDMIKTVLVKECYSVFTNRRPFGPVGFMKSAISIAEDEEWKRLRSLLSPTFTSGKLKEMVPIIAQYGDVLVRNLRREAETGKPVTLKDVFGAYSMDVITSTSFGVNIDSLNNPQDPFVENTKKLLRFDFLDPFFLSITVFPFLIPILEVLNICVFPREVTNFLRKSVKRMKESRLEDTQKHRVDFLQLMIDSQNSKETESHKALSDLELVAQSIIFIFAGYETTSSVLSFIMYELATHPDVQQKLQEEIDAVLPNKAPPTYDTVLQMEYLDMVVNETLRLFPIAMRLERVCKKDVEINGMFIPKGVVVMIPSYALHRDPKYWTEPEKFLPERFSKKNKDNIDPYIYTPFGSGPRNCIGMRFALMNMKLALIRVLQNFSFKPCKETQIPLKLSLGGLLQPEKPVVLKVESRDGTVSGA

[4] = Solubility in buffered aqueous solution at pH 4.1; format: physicochemical
[5] = Volume of distribution at steady state in Beagle dog at 1 mg/kg, iv and 2 mg/kg, po; format: ADME, organism-based, Canis lupus familiaris; details: in vivo, read-out: Vdss
Cytochrome P450 3A4 [6] = molecular target: T1, Cytochrome P450 3A4; assay: Induction of CYP3A4; format: ADME
[7] = Plasma concentration in Sprague-Dawley rat at 3 mg/kg, po after 24 hrs; format: ADME, organism-based; set-up: dose 3 mg/kg, route oral
Mus musculus [8] = assay: Toxicity in BALB/c nu/nu mouse assessed as adverse effect at 10 mg/kg, ip administered once daily for 5 days per week; format: organism-based; set-up: dose 10 mg/kg, route intraperitoneal; details: in vivo, 120 h
HCT-116 [9] = assay: Antiproliferative activity against human P53 expressing HCT116 cells after 72 hrs by celltiter-blue cell viability assay; format: functional
[10] = Metabolic stability in rat liver microsomes assessed as intrinsic clearance at 1 uM after 90 mins; format: ADME, Microsome
[11] = Clearance in Beagle dog at 1 mg/kg, iv and 2 mg/kg, po; format: ADME, organism-based, Canis lupus familiaris; details: in vivo
G-401 = assay: Antiproliferative activity against human G401 cells after 72 hrs by celltiter-blue cell viability assay; format: functional
HeLa = assay: Antiproliferative activity against human P53-deficient HeLa cells after 72 hrs by celltiter-blue cell viability assay; format: functional
[12] = Metabolic stability in dog liver microsomes assessed as intrinsic clearance at 1 uM after 90 mins; format: ADME, Canis lupus familiaris, Microsome; details: for microsomal CLint at 1 µM: liver microsomes
HCT-116 [13] = assay: Antitumor activity against human HCT116 cells xenografted nude mouse assessed as reduction in tumor growth at […], ip administered once daily for 5 days per week; format: functional, organism-based
Histone deacetylase 7 = molecular target: T2, Histone deacetylase 7 (Homo sapiens, UniProt Q8WUI4); assay: Inhibition of wild type His-tagged HDAC7 catalytic domain T515-L952 expressed in Escherichia coli
T2 sequence (Q8WUI4 whole entry): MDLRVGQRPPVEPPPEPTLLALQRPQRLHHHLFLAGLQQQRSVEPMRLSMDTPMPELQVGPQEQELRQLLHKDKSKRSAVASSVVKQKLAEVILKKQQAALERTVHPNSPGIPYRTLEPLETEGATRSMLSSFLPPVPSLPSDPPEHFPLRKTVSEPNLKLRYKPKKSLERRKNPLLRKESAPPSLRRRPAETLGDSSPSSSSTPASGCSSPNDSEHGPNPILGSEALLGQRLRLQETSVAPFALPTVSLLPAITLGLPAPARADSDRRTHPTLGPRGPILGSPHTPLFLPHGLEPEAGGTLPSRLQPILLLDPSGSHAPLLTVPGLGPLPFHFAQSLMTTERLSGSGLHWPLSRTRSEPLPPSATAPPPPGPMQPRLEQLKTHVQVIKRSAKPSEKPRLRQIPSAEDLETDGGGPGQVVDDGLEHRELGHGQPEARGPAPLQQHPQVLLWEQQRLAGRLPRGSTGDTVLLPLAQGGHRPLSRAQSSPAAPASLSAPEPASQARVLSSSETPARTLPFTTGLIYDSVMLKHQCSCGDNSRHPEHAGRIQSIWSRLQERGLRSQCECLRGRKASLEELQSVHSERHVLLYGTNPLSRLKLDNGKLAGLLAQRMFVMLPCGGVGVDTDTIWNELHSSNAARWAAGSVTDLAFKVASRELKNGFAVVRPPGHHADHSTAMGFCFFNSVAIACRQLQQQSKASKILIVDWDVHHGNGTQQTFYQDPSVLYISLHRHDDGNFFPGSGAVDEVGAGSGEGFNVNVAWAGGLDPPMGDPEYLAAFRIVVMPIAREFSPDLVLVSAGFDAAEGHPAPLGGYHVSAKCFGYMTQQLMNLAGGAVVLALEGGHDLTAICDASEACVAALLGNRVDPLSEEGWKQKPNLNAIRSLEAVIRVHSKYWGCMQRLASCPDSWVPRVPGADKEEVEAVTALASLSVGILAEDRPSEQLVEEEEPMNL

Histone deacetylase 5 = Histone deacetylase 5 (Homo sapiens, UniProt Q9UQL6); assay: Inhibition of wild type His-tagged HDAC5 catalytic domain T678-L1122 expressed in Escherichia coli
Sequence of Histone deacetylase 5 (Q9UQL6 whole entry, the tested form may be a part): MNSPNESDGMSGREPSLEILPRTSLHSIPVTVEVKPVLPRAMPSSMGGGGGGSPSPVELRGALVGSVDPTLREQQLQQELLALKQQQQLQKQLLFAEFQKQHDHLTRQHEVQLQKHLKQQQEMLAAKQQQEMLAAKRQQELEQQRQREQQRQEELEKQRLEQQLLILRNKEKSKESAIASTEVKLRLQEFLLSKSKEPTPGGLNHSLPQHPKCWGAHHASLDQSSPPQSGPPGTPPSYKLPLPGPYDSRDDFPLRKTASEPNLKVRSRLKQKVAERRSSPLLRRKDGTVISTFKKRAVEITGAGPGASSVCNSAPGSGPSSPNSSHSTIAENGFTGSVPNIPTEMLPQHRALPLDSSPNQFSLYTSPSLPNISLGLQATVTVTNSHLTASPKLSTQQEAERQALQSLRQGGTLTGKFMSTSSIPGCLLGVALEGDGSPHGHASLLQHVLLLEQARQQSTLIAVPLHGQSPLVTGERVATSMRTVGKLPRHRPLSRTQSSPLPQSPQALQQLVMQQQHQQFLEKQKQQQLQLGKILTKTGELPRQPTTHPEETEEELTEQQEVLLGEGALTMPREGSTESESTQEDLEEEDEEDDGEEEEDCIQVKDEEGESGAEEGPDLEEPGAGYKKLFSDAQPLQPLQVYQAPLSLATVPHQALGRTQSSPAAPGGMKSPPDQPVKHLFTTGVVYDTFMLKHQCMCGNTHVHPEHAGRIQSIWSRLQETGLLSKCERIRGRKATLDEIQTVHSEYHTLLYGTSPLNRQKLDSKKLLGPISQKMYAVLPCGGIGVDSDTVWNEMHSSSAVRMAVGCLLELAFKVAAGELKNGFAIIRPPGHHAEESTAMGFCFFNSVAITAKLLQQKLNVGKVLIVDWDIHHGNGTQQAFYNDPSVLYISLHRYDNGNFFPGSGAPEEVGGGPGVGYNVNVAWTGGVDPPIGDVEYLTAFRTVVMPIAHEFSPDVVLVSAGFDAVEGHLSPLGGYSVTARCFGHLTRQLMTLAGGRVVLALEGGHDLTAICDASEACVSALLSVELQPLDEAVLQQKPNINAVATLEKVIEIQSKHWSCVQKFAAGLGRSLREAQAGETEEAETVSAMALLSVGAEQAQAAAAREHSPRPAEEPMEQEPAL

[14] = Oral bioavailability in Beagle dog at 2 mg/kg; format: ADME, organism-based, Canis lupus familiaris; details: in vivo
A549 = assay: Antiproliferative activity against human P53 expressing A549 cells after 72 hrs by celltiter-blue cell viability assay; format: functional; details: A549, 72 h
U-937 = assay: Antiproliferative activity against human U937 cells after 72 hrs by celltiter-blue cell viability assay; format: functional; details: U-937, 72 h
[15] = Toxicity in ip dosed BALB/c nu/nu mouse assessed as maximum tolerated dose; format: organism-based; details: in vivo
MCF7 = assay: Antiproliferative activity against human MCF7 cells after 72 hrs by celltiter-blue cell viability assay; format: functional
[16] = molecular target: T3, Protein deacetylase HDAC6 (Homo sapiens, UniProt Q9UBN7)
T3 sequence (Q9UBN7 whole entry): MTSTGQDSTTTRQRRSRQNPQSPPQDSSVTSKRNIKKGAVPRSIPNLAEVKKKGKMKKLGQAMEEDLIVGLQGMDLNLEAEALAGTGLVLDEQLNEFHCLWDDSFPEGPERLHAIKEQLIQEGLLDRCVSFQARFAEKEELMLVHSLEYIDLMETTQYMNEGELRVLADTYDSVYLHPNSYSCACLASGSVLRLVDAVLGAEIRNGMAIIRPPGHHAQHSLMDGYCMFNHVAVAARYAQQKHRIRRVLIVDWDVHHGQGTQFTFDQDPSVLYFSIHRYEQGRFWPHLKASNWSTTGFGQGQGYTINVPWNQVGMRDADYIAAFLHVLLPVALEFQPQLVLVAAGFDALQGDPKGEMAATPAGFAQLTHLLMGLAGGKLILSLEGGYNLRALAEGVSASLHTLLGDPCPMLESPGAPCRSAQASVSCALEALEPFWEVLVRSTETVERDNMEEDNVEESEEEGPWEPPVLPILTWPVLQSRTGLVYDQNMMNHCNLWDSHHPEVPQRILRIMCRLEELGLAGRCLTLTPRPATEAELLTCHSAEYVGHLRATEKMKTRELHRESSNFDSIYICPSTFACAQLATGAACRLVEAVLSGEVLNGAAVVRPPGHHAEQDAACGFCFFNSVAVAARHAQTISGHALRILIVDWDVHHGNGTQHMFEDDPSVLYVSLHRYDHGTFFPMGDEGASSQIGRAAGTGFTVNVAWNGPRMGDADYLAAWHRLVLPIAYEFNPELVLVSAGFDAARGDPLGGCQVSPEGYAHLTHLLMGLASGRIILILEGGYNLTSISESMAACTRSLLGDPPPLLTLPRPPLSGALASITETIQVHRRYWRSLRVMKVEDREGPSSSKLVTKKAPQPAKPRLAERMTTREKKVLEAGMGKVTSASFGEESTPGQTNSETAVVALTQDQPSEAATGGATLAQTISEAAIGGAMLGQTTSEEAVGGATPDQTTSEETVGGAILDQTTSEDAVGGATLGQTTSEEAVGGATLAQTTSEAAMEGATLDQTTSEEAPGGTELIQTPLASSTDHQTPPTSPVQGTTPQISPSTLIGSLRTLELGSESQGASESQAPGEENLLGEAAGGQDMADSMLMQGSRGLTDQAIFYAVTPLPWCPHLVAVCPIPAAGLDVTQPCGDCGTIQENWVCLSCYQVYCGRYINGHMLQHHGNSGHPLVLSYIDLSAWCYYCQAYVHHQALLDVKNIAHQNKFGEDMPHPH
Description: Inhibition of C-terminal FLAG-tagged HDAC6 expressed in mammalian cells

Cytochrome P450 2C9 = Cytochrome P450 2C9 (Homo sapiens, UniProt P11712); assay: Inhibition of CYP2C9; format: ADME
Sequence of Cytochrome P450 2C9 (P11712 whole entry): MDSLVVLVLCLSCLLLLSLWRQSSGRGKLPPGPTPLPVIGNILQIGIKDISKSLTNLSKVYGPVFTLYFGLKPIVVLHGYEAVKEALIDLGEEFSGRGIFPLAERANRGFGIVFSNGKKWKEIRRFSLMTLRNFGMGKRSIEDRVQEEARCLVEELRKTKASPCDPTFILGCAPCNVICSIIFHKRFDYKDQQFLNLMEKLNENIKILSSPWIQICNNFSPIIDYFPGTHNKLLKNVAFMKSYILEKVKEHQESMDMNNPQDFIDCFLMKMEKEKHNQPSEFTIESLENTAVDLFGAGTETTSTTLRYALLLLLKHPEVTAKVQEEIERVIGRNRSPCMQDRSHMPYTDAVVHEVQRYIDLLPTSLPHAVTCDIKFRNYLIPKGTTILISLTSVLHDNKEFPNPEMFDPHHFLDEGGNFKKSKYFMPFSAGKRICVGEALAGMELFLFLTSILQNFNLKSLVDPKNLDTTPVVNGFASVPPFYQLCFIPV

Mus musculus [17] = assay: Toxicity in BALB/c nu/nu mouse assessed as body weight loss at 10 mg/kg, ip administered once daily for 5 days per week; format: organism-based; set-up: dose 10 mg/kg, route intraperitoneal; details: in vivo, 120 h
[18] = (§1) Metabolic stability in human liver microsomes assessed as intrinsic clearance at 1 uM after 90 mins; format: ADME, Microsome; details: liver microsomes
[19] = Plasma concentration in Beagle dog at 2 mg/kg, po after 24 hrs; format: ADME, organism-based, Canis lupus familiaris; set-up: dose 2 mg/kg, route oral
[20] = Clearance in Sprague-Dawley rat plasma at 3 mg/kg, iv and 3 mg/kg, po; format: ADME, organism-based
A2780 = assay: Antiproliferative activity against human A2780 cells after 72 hrs by celltiter-blue cell viability assay; format: functional; details: A2780, 72 h
[21] = Terminal half life in Beagle dog at 1 mg/kg, iv and 2 mg/kg, po; format: ADME, organism-based, Canis lupus familiaris; details: in vivo, read-out: beta t1/2 (converted)
[22] = Oral bioavailability in Sprague-Dawley rat at 3 mg/kg; format: ADME, organism-based; details: in vivo
HCT-116 [23] = assay: Antitumor activity against human HCT116 cells xenografted BALB/c nu/nu mouse assessed as reduction in tumor growth at 10 mg/kg, ip administered once daily for 5 days per week; format: functional, organism-based; set-up: dose 10 mg/kg
Histone deacetylase 1 = Histone deacetylase 1 (Homo sapiens, UniProt Q13547)
Sequence of Histone deacetylase 1 (Q13547 whole entry): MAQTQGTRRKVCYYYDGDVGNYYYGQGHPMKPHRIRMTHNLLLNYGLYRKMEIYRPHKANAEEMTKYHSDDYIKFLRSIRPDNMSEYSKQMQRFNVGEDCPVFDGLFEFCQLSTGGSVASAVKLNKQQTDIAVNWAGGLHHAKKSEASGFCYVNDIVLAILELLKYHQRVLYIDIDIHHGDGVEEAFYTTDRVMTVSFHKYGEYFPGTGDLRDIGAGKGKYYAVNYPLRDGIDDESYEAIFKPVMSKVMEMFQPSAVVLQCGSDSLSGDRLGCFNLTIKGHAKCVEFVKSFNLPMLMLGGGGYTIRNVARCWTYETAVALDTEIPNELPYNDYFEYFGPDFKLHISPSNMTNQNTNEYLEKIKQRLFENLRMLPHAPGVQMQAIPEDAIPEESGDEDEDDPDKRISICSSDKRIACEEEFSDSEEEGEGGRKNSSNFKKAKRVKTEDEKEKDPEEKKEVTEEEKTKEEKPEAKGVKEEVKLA
Description: Inhibition of human C-terminal FLAG-tagged HDAC1 in HEK293 cells

Liver microsomes = assay: as §1; format: ADME, Microsome; details: microsomes, 1.5 h, 1 µM

## CCC(=O)CCCCC[C@H](NC(=O)C1CN(C)C1)c1ncc(-c2cc3ccccc3nc2OC)[nH]1
[1]
  Vd: 7.9 L/kg
[2]
  half-life: 420 min
Cytochrome P450 3A4 [3]
  Activity: Not Active
[4]
  solubility: 13 mg/mL (≈ 27.2 mM)
[5]
  Vd: 3.5 L/kg
Cytochrome P450 3A4 [6]
  Activity: Not Active
[7]
  concentration at 24 h: > 100 nM
Mus musculus [8]
  Activity: Non-toxic
HCT-116 [9]; Homo sapiens, HCT-116, 72 h
  CC50: 220 nM
[10]
  microsomal CLint at 1 µM: 29 µL/min/mg
[11]
  clearance: 4 mL/min/kg
G-401; Homo sapiens, G-401, 72 h
  CC50: 370 nM
HeLa
  CC50: 135 nM
[12]
  microsomal CLint at 1 µM: 29 µL/min/mg
HCT-116 [13]
  Activity: Active
Histone deacetylase 7
  IC50: > 10 µM
Histone deacetylase 5
  IC50: > 10 µM
[14]
  bioavailability: 31%
A549
  CC50: 490 nM
U-937
  CC50: 240 nM
[15]
  MTD: 10 mg/kg
MCF7; Homo sapiens, MCF7, 72 h
  CC50: 750 nM
[16]
  IC50: 680 µM
Cytochrome P450 2C9
  IC50: 5.5 µM
Mus musculus [17]
  Activity: Non-toxic
[18]
  microsomal CLint at 1 µM: 31 µL/min/mg
[19]
  concentration at 24 h: > 100 nM
[20]
  clearance: 19 mL/min/kg
A2780
  CC50: 740 nM
[21]
  half-life: 840 min
[22]
  bioavailability: 73%
HCT-116 [23]
  Activity: Active

## CCC(=O)CCCCC[C@H](NC(=O)C1CN(C)C1)c1ncc(-c2cnc3ccccc3n2)[nH]1
[10]
  microsomal CLint at 1 µM: 27 µL/min/mg
HeLa
  CC50: 430 nM
[12]
  microsomal CLint at 1 µM: 20 µL/min/mg
[18]
  microsomal CLint at 1 µM: 19 µL/min/mg
Histone deacetylase 1
  IC50: 8 nM

## CCC(=O)CCCCC[C@H](NC(=O)CCN(C)C)c1ncc(-c2cc(OC)c3ccccc3n2)[nH]1
[10]
  microsomal CLint at 1 µM: 38 µL/min/mg
HeLa
  CC50: 500 nM
[12]
  microsomal CLint at 1 µM: 6 µL/min/mg
[18]
  microsomal CLint at 1 µM: 15 µL/min/mg
Histone deacetylase 1
  IC50: 51 nM
[20]
  clearance: 59 mL/min/kg

## CCC(=O)CCCCC[C@H](NC(=O)C1CCN(C)CC1)c1ncc(-c2ccc3ccccc3c2)[nH]1
[10]
  microsomal CLint at 1 µM: > 200 µL/min/mg
HeLa
  CC50: 210 nM
[12]
  microsomal CLint at 1 µM: 194 µL/min/mg
[18]
  microsomal CLint at 1 µM: 194 µL/min/mg

## O=C(CCCCCCC(=O)Nc1ccccc1)NO [VORINOSTAT]
HCT-116 [9]
  CC50: 1000 nM
G-401
  CC50: 1000 nM
MCF7
  CC50: 3000 nM

## CC(=O)CCCCC[C@H](NC(=O)C1CCN(C)CC1)c1ncc(-c2ccc3ccccc3c2)[nH]1
HeLa
  CC50: 300 nM
[12]; microsomes, 1.5 h, 1 µM
  CL: 194 µL/min/mg
Liver microsomes
  CL: 194 µL/min/mg

## CCC(=O)CCCCC[C@H](NC(=O)C1CCN(C)CC1)c1ncc(-c2ccc3ccccc3n2)[nH]1
[10]
  microsomal CLint at 1 µM: 110 µL/min/mg
HeLa
  CC50: 480 nM
[12]
  microsomal CLint at 1 µM: 9 µL/min/mg
[18]
  microsomal CLint at 1 µM: 12 µL/min/mg
Histone deacetylase 1
  IC50: 22 nM
[20]
  clearance: 155 mL/min/kg

## CCC(=O)CCCCC[C@H](NC(=O)CCN1CCN(C)CC1)c1ncc(-c2cc(OC)c3ccccc3n2)[nH]1
[10]
  microsomal CLint at 1 µM: 190 µL/min/mg
HeLa
  CC50: 390 nM
[12]
  microsomal CLint at 1 µM: 170 µL/min/mg
[18]
  microsomal CLint at 1 µM: 140 µL/min/mg
Histone deacetylase 1
  IC50: 17 nM
